Test results as given in patent US20220120753A1, “METHOD FOR DETERMINING PROGNOSIS OF CANCER” (The University of Tokyo, priority 2018, published 2022).
Peptide text beside a SMILES is read from it. * marks the point of attachment. Cbz = O=C(OCc1ccccc1)*

B1: Estrogen receptor α (ERα) (receptor, UniProt P03372 1-595, looked up)
chain: MTMTLHTKASGMALLHQIQGNELEPLNRPQLKIPLERPLGEVYLDSSKPAVYNYPEGAAYEFNAAAAANAQVYGQTGLPYGPGSEAAAFGSNGLGGFPPLNSVSPSPLMLLHPPPQLSPFLQPHGQQVPYYLENEPSGYTVREAGPPAFYRPNSDNRRQGGRERLASTNDKGSMAMESAKETRYCAVCNDYASGYHYGVWSCEGCKAFFKRSIQGHNDYMCPATNQCTIDKNRRKSCQACRLRKCYEVGMMKGGIRKDRRGGRMLKHKRQRDDGEGRGEVGSAGDMRAANLWPSPLMIKRSKKNSLALSLTADQMVSALLDAEPPILYSEYDPTRPFSEASMMGLLTNLADRELVHMINWAKRVPGFVDLTLHDQVHLLECAWLEILMIGLVWRSMEHPGKLLFAPNLLLDRNQGKCVEGMVEIFDMLLATSSRFRMMNLQGEEFVCLKSIILLNSGVYTFLSSTLKSLEEKDHIHRVLDKITDTLIHLMAKAGLTLQQQHQRLAQLLLILSHIRHMSNKGMEHLYSMKCKNVVPLYDLLLEMLDAHRLHAPTSRGGASVEETDQSHLATAGSTSSHSLQKYYITGEAEGFPATV
notes: Endogenous ERα in MCF-7 nuclear extract or cell lysate; also called ERalpha

Experiments:
[1] = test system: ERα-dependent transcription; assay: qPCR of ERα target gene transcripts (EBAG9, GREB1) in MCF-7 cells; format: cell-based, human; conditions: for effect of removing Fbxo22 on the antagonistic activity: MCF-7 expressing Dox-induced shRNAs, E2 6 h then drug 12 h
Method: (§1) Using total RNA derived from individual cells recovered over time, qPCR was carried out. […] Using total RNA prepared from the treated cells, qPCR was carried out. […] Using the nucleus extract, immunoprecipitation and immunoblotting were carried out.
Using total RNA prepared from the cells over time, qPCR was carried out.
(§2) Total RNA was prepared from the cells treated with various drugs, and qPCR was carried out.
The cells were washed with PBS three times, and were then cultured in phenol red-non-added DMEM (supplemented with 5% charcoal-stripped FBS) for 72 hours.
Quantitative RT-PCR was carried out according to the method described in Johmura et al., Molecular Cell 55: 73-84, 2014. Total RNA was extracted using ISOGEN II (Wako), and using this as a template, cDNA was synthesized using SuperScript II cDNA synthesis kit (Invitrogen). PCR amplification was carried out in a 96-well optical reaction plate, using Power SYBR Green PCR Master Mix (Applied Biosystems). The relative expression ratio of individual genes was normalized with respect to the expression level of GAPDH.

[2] = test system: ERα complex with KDM4B and SRC-3
Method: as §1
The obtained cells were immunostained with anti-FLAG antibodies. Representative images are shown.
as §2
Immunoprecipitation and immunoblotting were carried out according to the method described in Johmura et al., Molecular Cell 55: 73-84, 2014. The cells were dissolved in a TBSN buffer (20 mM Tris-Cl (pH 8.0), 150 mM NaCl, 0.5% NP-40, 5 mM EGTA, 1.5 mM EDTA, and 0.5 mM Na3VO4). The obtained cell lysate was centrifuged at 4° C. at 15,000×g for 20 minutes, and was then used in immunoprecipitation using an antibody.
Regarding immunoprecipitation of ERα and KDM4B, a nuclear extract was prepared according to the method described in Hirokawa et al., Cancer Res. 74: 3880-3889, 2014. Cell pellets were suspended in buffer A (10 mM Hepes-KOH pH 7.9, 10 mM KCl, 1.5 mM MgCl2, 0.5 mM DTT, 0.5 mM PMSF, and protease inhibitor cocktail (Nakalai Tesque)) having five times the volume of the cell pellets, and the suspension was then incubated on ice for 5 minutes. Thereafter, the cells were centrifuged at 4° C. at 500×g for 5 minutes, and the obtained cell pellets were then suspended in buffer A having two times the volume of the cell pellets for homogenization. The homogenized cell suspension was centrifuged at 4° C. at 4,000×g for 5 minutes, and a cell nucleus was recovered in a precipitate. To the recovered nucleus, an equal amount of buffer B (20 mM Hepes-KOH pH 7.9, 600 mM KCl, 1.5 mM MgCl2, 0.2 mM EDTA, 25% glycerol, 0.5 mM DTT, 0.5 mM PMSF, and protease inhibitor cocktail) was added and suspended, and the obtained mixture was then blended at 4° C. for 30 minutes, using a rotator. The nuclear extract was centrifuged at 4° C. at 16,000×g for 15 minutes, and was then recovered in a supernatant. The nuclear extract was dialyzed against buffer C (20 mM Hepes-KOH pH 7.9, 100 mM KCl, 0.2 mM EDTA, 20% glycerol, 0.5 mM DTT, and 0.5 mM PMSF). After completion of the dialysis, the nuclear extract was centrifuged at 4° C. at 16,000×g for 30 minutes, and the remaining precipitate was then eliminated.
A protein (20 to 50 μg) was separated from the total cell lysate by SDS-PAGE, and was then transferred into a PVDF membrane (Millipore), which was then used in immunoblotting using various types of antibodies.

ERα = assay: ChIP-Seq analysis of ERα binding in MCF-7 cells; format: cell-based, human; conditions: 2 hours, E2 line = E2 (10 nM), 4-OHT line = E2+4-OHT
Source text: Thereafter, DNA was extracted using a DNA purification column.

KDM4B [3] = target: T1, KDM4B (UniProt O94953 1-1096); assay: co-IP (IP: ER) and immunoblot, MCF-7 nuclear extract after E2 (FIG. 2B)
T1 construct: Endogenous KDM4B in MCF-7 nuclear extract or cell lysate; also called histone lysine demethylase KDM4B
T1 sequence (looked up): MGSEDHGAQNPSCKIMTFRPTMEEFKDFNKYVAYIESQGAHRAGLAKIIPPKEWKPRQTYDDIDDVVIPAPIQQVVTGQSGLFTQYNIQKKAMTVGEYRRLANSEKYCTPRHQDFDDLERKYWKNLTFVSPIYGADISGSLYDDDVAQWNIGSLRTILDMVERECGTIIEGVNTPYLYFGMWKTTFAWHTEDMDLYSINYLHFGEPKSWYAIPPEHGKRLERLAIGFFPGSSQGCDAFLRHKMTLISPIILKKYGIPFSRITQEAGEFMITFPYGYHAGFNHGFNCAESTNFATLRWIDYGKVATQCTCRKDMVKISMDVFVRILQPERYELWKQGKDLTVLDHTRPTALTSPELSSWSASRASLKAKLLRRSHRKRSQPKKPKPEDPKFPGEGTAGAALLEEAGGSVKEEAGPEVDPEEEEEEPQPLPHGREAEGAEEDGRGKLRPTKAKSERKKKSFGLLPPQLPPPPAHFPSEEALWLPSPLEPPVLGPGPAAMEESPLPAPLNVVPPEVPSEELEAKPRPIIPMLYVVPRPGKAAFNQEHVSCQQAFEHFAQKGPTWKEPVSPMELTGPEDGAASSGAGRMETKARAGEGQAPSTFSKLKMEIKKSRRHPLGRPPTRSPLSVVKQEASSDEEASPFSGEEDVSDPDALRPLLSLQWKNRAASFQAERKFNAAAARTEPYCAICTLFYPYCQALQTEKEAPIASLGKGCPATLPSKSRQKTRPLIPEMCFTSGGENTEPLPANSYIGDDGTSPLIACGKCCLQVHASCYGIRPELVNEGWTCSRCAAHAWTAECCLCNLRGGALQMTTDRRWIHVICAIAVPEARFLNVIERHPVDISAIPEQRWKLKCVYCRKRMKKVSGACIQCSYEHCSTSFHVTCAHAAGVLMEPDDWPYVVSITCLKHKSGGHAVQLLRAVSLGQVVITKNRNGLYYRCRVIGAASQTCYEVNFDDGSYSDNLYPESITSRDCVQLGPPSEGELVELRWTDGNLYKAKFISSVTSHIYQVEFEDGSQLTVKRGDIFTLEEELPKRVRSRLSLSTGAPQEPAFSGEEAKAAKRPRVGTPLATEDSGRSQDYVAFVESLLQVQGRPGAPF

N-CoR repressor = target: T2, N-CoR repressor (UniProt O75376 1-2440, limits assumed); assay: co-IP and immunoblot, control MCF-7 nuclear extract after E2 then 4-OHT (FIG. 5B)
T2 construct: Endogenous corepressor in MCF-7 nuclear extract
T2 sequence (O75376 whole entry): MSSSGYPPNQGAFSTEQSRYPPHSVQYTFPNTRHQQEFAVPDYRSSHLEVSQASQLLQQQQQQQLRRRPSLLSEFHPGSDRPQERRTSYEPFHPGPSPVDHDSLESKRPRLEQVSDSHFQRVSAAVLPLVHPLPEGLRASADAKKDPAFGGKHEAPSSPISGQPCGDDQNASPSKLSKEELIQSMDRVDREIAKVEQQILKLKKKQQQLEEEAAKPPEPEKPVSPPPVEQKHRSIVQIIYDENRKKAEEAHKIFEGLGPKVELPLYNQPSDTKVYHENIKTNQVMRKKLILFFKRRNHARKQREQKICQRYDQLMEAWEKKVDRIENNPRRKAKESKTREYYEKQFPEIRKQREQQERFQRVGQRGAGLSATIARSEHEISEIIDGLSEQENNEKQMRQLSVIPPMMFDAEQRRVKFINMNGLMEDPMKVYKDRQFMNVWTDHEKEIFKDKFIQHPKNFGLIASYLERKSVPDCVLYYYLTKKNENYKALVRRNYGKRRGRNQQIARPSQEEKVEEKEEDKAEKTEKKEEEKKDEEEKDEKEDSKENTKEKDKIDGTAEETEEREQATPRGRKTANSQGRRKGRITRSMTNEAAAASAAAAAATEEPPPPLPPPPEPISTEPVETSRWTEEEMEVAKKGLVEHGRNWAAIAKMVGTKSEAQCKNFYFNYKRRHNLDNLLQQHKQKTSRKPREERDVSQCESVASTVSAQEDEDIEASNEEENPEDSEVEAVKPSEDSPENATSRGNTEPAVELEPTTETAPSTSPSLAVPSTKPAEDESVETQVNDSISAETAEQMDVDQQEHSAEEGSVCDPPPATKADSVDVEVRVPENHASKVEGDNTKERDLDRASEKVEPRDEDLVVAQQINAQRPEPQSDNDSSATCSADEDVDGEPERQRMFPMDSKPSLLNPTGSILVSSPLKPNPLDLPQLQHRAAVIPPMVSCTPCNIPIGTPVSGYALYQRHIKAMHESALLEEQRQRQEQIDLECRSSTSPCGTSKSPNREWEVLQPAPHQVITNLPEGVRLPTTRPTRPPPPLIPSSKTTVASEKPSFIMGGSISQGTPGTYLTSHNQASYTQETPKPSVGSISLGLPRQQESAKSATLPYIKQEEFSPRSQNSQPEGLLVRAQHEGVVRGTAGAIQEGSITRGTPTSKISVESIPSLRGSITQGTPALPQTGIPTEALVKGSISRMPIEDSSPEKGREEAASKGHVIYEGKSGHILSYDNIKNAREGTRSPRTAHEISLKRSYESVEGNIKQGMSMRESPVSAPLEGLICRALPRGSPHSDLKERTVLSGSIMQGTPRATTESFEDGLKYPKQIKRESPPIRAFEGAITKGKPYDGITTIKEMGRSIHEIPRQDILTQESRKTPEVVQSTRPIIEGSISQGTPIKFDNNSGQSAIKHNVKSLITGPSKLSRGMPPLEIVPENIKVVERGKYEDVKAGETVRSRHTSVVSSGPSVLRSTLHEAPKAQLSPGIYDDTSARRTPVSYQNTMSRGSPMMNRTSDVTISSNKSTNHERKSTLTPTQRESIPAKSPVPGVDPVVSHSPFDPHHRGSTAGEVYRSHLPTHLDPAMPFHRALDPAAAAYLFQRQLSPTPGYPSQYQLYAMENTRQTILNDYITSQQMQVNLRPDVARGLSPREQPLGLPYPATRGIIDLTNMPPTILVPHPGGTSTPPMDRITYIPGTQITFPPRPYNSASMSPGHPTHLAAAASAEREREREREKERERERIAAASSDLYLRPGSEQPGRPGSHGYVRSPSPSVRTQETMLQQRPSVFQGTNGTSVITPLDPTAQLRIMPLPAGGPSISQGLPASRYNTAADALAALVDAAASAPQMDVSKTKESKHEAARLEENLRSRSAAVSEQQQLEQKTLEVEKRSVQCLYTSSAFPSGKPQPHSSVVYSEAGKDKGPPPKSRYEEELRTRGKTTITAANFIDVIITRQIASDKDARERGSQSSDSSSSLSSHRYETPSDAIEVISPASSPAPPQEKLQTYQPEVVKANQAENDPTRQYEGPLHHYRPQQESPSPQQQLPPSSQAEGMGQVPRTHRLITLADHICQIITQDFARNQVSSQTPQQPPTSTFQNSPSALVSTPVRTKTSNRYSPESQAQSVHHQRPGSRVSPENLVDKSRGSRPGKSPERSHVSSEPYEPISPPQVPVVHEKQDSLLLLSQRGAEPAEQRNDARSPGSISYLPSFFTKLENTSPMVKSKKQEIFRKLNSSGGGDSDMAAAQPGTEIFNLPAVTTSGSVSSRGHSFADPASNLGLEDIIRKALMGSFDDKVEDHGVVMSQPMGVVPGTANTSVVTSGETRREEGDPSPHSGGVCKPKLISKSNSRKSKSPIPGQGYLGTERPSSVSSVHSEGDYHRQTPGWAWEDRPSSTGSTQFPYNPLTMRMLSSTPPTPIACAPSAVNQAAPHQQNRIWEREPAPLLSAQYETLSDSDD

KDM4B [4] = target: T1, KDM4B; assay: co-IP and immunoblot, E2-depleted MCF-7 cells with MG132 and 0.1, 1 or 10 nM E2 (FIG. 3I)
[5] = target: B1; assay: anti-FLAG co-IP and immunoblot, MCF-7 cells expressing FLAG-Fbxo22 Wt or domain-deficient mutants (FIG. 3G)

C[C@]12CC[C@@H]3c4ccc(O)cc4C[C@@H](CCCCCCCCC[S+]([O-])CCCC(F)(F)C(F)(F)F)[C@H]3[C@@H]1CC[C@@H]2O (stereo partly shown) [Fulvestrant]
effect of removing Fbxo22 on the antagonistic activity [1]: no effects | need of Fbxo22 for the dynamics of cofactors in treated cells ([2]; MCF-7, E2 plus drug): not necessary

C[C@]12CC[C@@H]3c4ccc(O)cc4CC[C@H]3[C@@H]1CC[C@@H]2O [E2, Estradiol]
ERα accumulation peaks detected (ERα; Fbxo22-depleted MCF-7 cells): 23,213 | ERα accumulation peaks detected (ERα; wild-type/control MCF-7 cells): 1,264

CC(C)C[C@@H](C=O)NC(=O)[C@H](CC(C)C)NC(=O)[C@H](CC(C)C)NC(=O)OCc1ccccc1 [MG132] (Cbz-Leu-Leu-Leu-aldehyde)
E2-induced transcriptional activity of EBAG9 and GREB1 after removal of E2 ([1]; MCF-7, E2 removed from medium, proteasome inhibitor added): recovered | transcript levels of EBAG9 and GREB1 after treatment with 4-OHT ([1]; MCF-7, E2 then 4-OHT, in the presence of MG132 (10 μg/ml) compared with absence): maintained at high levels | dynamics of cofactors (complex dissociation, N-CoR binding) after 4-OHT ([2]; MCF-7, E2+4-OHT+MG132): suppressed | dissociation of KDM4B and SRC-3 from ERα by elimination of E2 ([2]; MCF-7, E2 depletion plus proteasome inhibitor): suppressed

CN(C)CCOc1ccc(/C(=C(/CCCl)c2ccccc2)c2ccccc2)cc1 [Toremifene]
effect of removing Fbxo22 on the antagonistic activity [1]: effects similar to those on 4-OHT

B1
binding result (KDM4B [3]): binds | binding result (N-CoR repressor): binds

B2: wild-type FLAG-Fbxo22 (Wt) (other)
chain: MEPVGCCGECRGSSVDPRSTFVLSNLAEVVERVLTFLPAKALLRVACVCRLWRECVRRVLRTHRSVTWISAGLAEAGHLEGHCLVRVVAEELENVRILPHTVLYMADSETFISLEECRGHKRARKRTSMETALALEKLFPKQCQVLGIVTPGIVVTPMGSGSNRPQEIEIGESGFALLFPQIEGIKIQPFHFIKDPKNLTLERHQLTEVGLLDNPELRVVLVFGYNCCKVGASNYLQQVVSTFSDMNIILAGGQVDNLSSLTSEKNPLDIDASGVVGLSFSGHRIQSATVLLNEDVSDEKTAEAAMQRLKAANIPEHNTIGFMFACVGRGFQYYRAKGNVEADAFRKFFPSVPLFGFFGNGEIGCDRIVTGNFILRKCNEVKDDDLFHSYTTIMALIHLGSSK
notes: Dox-induced expression in MCF-7 cells; The tag is placed first by the order in the name; not shown: FLAG tag
binding result (KDM4B [4]): binds | binding result [5]: binds
